PubChem BioAssay AID1982 (Sanford-Burnham Center for Chemical Genomics, 2009)
Calls of active or inactive are those of the source. No rule for the calls is given here.

How the values were obtained:
Experiment in all cases: kinase panel binding selectivity, selectivity assay, biochemical, KINOMEscan (AID 1982)
ADCK3 = details: KINOMEscan 353-kinase binding panel, qPCR, at 10 µM, stronger effect = lower value
ARK5 = details: KINOMEscan 353-kinase binding panel, qPCR, at 10 µM, stronger effect = lower value
CAMK1G = details: KINOMEscan 353-kinase binding panel, qPCR, at 10 µM, stronger effect = lower value
CDC2L2 = details: KINOMEscan 353-kinase binding panel, qPCR, at 10 µM, stronger effect = lower value
[1] = molecular target: Calcium/calmodulin-dependent protein kinase type II subunit beta (Homo sapiens) (UniProt Q13554); details: KINOMEscan 353-kinase binding panel, qPCR; CAMK2B; at 10 µM; stronger effect = lower value
Calcium/calmodulin-dependent protein kinase type II subunit beta (Homo sapiens), sequence (Q13554 whole entry, looked up): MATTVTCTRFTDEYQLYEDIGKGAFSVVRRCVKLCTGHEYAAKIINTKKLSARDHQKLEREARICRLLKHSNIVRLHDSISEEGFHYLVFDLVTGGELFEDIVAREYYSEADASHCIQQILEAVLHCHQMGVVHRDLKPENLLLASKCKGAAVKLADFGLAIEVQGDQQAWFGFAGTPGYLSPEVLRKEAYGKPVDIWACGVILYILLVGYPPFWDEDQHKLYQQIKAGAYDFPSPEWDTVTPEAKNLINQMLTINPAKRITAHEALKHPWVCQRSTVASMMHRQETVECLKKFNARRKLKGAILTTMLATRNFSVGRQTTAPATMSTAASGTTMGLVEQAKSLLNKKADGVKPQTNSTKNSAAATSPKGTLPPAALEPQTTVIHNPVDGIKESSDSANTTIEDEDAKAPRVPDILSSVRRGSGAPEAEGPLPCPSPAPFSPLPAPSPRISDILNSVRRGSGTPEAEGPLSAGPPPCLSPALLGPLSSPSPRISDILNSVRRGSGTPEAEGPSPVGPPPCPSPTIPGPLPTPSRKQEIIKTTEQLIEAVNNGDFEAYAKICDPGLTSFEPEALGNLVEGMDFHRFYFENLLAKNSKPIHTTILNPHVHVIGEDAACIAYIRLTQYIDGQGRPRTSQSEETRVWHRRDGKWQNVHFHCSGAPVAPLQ

DAPK1 = details: KINOMEscan 353-kinase binding panel, qPCR, at 10 µM, stronger effect = lower value
DDR1 = details: KINOMEscan 353-kinase binding panel, qPCR, at 10 µM, stronger effect = lower value
ERK5 = details: KINOMEscan 353-kinase binding panel, qPCR, at 10 µM, stronger effect = lower value
[2] = molecular target: Focal adhesion kinase 1 (Homo sapiens) (UniProt Q05397); details: KINOMEscan 353-kinase binding panel, qPCR; PTK2; at 10 µM; stronger effect = lower value
[3] = molecular target: Glycogen synthase kinase-3 beta (Homo sapiens) (UniProt P49841); details: KINOMEscan 353-kinase binding panel, qPCR; GSK3B; at 10 µM; stronger effect = lower value
Glycogen synthase kinase-3 beta (Homo sapiens), sequence (P49841 whole entry, looked up): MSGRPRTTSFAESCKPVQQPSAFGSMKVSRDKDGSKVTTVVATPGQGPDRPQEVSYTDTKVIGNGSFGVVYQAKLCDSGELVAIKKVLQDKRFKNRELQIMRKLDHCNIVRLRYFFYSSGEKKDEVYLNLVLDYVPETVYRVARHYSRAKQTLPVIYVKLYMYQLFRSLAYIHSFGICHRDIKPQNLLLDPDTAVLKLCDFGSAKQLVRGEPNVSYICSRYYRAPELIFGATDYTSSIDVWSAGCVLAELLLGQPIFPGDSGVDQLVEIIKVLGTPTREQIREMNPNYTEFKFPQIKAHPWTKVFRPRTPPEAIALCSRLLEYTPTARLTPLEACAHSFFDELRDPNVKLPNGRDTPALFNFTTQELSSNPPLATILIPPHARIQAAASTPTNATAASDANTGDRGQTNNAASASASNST

LATS1 = details: KINOMEscan 353-kinase binding panel, qPCR, at 10 µM, stronger effect = lower value
MAP4K3 = details: KINOMEscan 353-kinase binding panel, qPCR, at 10 µM, stronger effect = lower value
MST3 = details: KINOMEscan 353-kinase binding panel, qPCR, at 10 µM, stronger effect = lower value
MYO3B = details: KINOMEscan 353-kinase binding panel, qPCR, at 10 µM, stronger effect = lower value
[4] = molecular target: Misshapen-like kinase 1 (Homo sapiens) (UniProt Q8N4C8); details: KINOMEscan 353-kinase binding panel, qPCR; MINK; at 10 µM; stronger effect = lower value
Misshapen-like kinase 1 (Homo sapiens), sequence (Q8N4C8 whole entry, looked up): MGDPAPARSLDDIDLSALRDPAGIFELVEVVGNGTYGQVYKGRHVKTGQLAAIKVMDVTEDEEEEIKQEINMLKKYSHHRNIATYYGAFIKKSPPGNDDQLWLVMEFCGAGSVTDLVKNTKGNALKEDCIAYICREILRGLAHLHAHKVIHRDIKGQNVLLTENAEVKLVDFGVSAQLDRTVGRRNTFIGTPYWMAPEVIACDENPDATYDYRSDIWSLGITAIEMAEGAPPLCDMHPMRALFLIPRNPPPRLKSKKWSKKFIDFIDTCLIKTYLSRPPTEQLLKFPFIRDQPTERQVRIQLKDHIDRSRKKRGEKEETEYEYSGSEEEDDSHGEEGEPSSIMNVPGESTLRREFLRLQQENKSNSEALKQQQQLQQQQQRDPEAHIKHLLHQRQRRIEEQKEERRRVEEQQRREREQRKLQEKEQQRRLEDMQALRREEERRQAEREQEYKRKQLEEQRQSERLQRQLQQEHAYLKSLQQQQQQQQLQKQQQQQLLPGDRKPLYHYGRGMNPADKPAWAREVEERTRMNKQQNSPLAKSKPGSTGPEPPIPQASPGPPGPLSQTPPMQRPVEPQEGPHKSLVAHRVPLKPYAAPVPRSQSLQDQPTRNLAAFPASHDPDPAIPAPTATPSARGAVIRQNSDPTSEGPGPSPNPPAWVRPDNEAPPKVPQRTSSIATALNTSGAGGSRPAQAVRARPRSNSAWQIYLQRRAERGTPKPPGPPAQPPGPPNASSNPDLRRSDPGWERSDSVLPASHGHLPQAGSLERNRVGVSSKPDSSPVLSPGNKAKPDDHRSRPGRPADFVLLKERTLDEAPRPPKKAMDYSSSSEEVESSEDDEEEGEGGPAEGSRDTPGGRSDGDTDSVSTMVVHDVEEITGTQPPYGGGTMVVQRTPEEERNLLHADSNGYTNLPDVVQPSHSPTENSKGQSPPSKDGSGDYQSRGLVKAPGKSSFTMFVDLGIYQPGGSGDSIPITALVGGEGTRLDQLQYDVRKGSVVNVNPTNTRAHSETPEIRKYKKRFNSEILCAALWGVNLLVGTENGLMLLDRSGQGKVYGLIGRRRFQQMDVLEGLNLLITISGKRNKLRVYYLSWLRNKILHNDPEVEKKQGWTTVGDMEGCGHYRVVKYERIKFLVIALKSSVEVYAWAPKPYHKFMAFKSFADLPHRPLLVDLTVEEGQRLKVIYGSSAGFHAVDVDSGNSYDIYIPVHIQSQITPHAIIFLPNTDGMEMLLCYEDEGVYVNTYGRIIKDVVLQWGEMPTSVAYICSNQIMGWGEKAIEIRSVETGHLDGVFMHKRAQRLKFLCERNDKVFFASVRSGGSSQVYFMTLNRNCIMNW

[5] = molecular target: NT-3 growth factor receptor (Homo sapiens) (UniProt Q16288); details: KINOMEscan 353-kinase binding panel, qPCR; TRKC; at 10 µM; stronger effect = lower value
PAK3 = details: KINOMEscan 353-kinase binding panel, qPCR, at 10 µM, stronger effect = lower value
PIK3CB = details: KINOMEscan 353-kinase binding panel, qPCR, at 10 µM, stronger effect = lower value
[6] = molecular target: Platelet-derived growth factor receptor alpha (Homo sapiens) (UniProt P16234); details: KINOMEscan 353-kinase binding panel, qPCR; PDGFRA; at 10 µM; stronger effect = lower value
[7] = molecular target: RAC-beta serine/threonine-protein kinase (Homo sapiens) (UniProt P31751); details: KINOMEscan 353-kinase binding panel, qPCR; AKT2; at 10 µM; stronger effect = lower value
RAC-beta serine/threonine-protein kinase (Homo sapiens), sequence (P31751 whole entry, looked up): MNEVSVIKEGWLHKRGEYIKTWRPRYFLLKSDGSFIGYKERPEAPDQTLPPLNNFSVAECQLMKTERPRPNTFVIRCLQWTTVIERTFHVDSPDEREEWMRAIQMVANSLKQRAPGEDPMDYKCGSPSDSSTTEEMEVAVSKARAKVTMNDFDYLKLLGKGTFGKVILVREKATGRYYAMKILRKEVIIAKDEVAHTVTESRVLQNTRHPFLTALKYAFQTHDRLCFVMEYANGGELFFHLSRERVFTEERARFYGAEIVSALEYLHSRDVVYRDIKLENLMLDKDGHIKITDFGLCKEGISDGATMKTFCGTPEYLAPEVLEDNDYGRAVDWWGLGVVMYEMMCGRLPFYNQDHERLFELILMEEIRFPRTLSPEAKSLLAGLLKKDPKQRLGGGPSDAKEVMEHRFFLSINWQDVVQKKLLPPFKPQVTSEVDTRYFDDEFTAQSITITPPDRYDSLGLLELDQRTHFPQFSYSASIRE

RIOK2 = details: KINOMEscan 353-kinase binding panel, qPCR, at 10 µM, stronger effect = lower value
RIOK3 = details: KINOMEscan 353-kinase binding panel, qPCR, at 10 µM, stronger effect = lower value
[8] = molecular target: Serine/threonine-protein kinase N2 (Homo sapiens) (UniProt Q16513); details: KINOMEscan 353-kinase binding panel, qPCR; PKN2; at 10 µM; stronger effect = lower value
[9] = molecular target: Serine/threonine-protein kinase PAK 6 (Homo sapiens) (UniProt Q9NQU5); details: KINOMEscan 353-kinase binding panel, qPCR; PAK6; at 10 µM; stronger effect = lower value
Serine/threonine-protein kinase PAK 6 (Homo sapiens), sequence (Q9NQU5 whole entry, looked up): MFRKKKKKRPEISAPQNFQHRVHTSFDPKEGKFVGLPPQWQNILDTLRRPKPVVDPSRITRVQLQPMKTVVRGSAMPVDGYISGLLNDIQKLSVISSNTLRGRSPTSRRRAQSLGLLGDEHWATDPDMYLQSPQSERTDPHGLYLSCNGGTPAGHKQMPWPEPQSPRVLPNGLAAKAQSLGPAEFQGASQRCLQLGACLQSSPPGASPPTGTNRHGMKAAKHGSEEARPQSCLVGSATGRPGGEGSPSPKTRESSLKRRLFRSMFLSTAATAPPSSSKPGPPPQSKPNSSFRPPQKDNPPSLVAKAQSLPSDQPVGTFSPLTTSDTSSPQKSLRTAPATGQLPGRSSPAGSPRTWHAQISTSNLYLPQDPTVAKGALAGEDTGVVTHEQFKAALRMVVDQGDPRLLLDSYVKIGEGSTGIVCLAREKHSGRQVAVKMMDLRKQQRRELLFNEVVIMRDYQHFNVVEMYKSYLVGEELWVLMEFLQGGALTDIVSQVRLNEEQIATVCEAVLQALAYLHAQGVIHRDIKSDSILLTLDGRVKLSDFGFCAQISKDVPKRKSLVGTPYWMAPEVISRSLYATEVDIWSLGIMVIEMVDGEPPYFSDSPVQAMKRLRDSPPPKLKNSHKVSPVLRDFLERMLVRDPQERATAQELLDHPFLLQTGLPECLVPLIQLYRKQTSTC

[10] = molecular target: Serine/threonine-protein kinase TAO1 (Homo sapiens) (UniProt Q7L7X3); details: KINOMEscan 353-kinase binding panel, qPCR; TAOK1; at 10 µM; stronger effect = lower value
[11] = molecular target: Serine/threonine-protein kinase pim-2 (Homo sapiens) (UniProt Q9P1W9); details: KINOMEscan 353-kinase binding panel, qPCR; PIM2; at 10 µM; stronger effect = lower value
TEC = details: KINOMEscan 353-kinase binding panel, qPCR, at 10 µM, stronger effect = lower value
[12] = molecular target: Tyrosine-protein kinase Blk (Homo sapiens) (UniProt P51451); details: KINOMEscan 353-kinase binding panel, qPCR, at 10 µM, stronger effect = lower value
[13] = molecular target: Tyrosine-protein kinase Fer (Homo sapiens) (UniProt P16591); details: KINOMEscan 353-kinase binding panel, qPCR, at 10 µM, stronger effect = lower value
Tyrosine-protein kinase Fer (Homo sapiens), sequence (P16591 whole entry, looked up): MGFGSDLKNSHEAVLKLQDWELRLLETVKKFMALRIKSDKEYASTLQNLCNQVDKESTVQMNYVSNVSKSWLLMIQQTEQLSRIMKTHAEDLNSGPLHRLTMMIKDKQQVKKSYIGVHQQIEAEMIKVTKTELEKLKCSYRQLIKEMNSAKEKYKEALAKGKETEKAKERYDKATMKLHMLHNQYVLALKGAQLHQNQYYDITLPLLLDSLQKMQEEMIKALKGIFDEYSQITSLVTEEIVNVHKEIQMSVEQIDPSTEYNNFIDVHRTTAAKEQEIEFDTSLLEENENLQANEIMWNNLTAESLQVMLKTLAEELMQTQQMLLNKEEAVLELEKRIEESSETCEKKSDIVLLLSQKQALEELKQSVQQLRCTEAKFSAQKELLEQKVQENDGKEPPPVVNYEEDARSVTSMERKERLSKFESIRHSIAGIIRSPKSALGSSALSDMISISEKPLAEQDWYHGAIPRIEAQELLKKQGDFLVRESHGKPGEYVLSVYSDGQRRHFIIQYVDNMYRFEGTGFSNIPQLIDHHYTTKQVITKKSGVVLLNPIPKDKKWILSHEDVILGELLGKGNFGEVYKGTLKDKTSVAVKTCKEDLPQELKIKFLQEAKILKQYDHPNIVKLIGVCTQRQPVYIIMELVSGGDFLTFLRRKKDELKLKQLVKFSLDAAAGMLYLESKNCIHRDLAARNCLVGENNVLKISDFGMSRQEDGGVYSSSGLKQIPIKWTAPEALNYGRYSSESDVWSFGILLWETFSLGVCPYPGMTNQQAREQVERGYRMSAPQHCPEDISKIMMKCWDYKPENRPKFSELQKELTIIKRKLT

[14] = molecular target: Tyrosine-protein kinase JAK2 (Homo sapiens) (UniProt O60674); details: KINOMEscan 353-kinase binding panel, qPCR; JAK2(Kin.Dom.2); at 10 µM; stronger effect = lower value
[15] = molecular target: Tyrosine-protein kinase SYK (Homo sapiens) (UniProt P43405); details: KINOMEscan 353-kinase binding panel, qPCR, at 10 µM, stronger effect = lower value
[16] = molecular target: Tyrosine-protein kinase receptor TYRO3 (Homo sapiens) (UniProt Q06418); details: KINOMEscan 353-kinase binding panel, qPCR, at 10 µM, stronger effect = lower value
[17] = molecular target: Vascular endothelial growth factor receptor 3 (Homo sapiens) (UniProt P35916); details: KINOMEscan 353-kinase binding panel, qPCR; FLT4; at 10 µM; stronger effect = lower value
[18] = molecular target: Wee1-like protein kinase 2 (Homo sapiens) (UniProt P0C1S8); details: KINOMEscan 353-kinase binding panel, qPCR; WEE2; at 10 µM; stronger effect = lower value
Wee1-like protein kinase 2 (Homo sapiens), sequence (P0C1S8 whole entry, looked up): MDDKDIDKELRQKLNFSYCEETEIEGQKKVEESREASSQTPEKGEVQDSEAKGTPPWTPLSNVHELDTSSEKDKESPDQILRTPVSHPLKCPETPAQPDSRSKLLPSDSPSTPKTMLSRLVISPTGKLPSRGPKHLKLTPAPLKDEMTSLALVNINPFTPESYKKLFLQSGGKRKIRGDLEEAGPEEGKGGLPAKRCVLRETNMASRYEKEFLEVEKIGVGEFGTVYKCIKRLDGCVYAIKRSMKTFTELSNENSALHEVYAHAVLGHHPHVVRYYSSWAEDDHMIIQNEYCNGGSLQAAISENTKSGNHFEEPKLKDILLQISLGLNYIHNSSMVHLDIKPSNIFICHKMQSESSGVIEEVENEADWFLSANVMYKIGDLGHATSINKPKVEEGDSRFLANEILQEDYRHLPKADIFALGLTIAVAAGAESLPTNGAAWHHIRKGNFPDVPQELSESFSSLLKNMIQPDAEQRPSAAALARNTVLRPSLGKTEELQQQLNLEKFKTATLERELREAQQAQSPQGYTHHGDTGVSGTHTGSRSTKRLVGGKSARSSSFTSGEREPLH

Measured: percent of control binding

Cc1cc2nc(NCCCO)n(CC(=O)c3cc(C(C)(C)C)c(O)c(C(C)(C)C)c3)c2cc1C
inactive: ADCK3 72% | ARK5 100% | CAMK1G 88% | CDC2L2 100% | [1] 100% | DAPK1 87% | DDR1 100% | ERK5 100% | [2] 100% | [3] 100% | LATS1 94% | MAP4K3 100% | MST3 100% | MYO3B 65% | [4] 100% | [5] 100% | PAK3 79% | PIK3CB 79% | [6] 86% | [7] 85% | RIOK2 96% | RIOK3 100% | [8] 100% | [9] 76% | [10] 90% | [11] 94% | TEC 98% | [12] 99% | [13] 100% | [14] 47% | [15] 100% | [16] 100% | [17] 100% | [18] 100%
